2 compounds from patent publication US9096593B2, “Compounds and methods for kinase modulation, and indications therefor” (Plexxikon Inc., priority 2009, dated 2015) can be followed below.

Like-named read-outs stand apart in the source and are kept apart here.

A short description of data set [1]: Turbidity assay of relative solubility in aqueous buffers. The class given is physicochemical. As to conditions: for turbidity threshold (L, M, H) 1.4: pH 1.4 as headed (method: SGF pH 1.5); for turbidity threshold (L, M, H) 4.5: pH 4.5 (SIF); for turbidity threshold (L, M, H) 6.8: pH 6.8 (SIF); for turbidity threshold (L, M, H) 7.4: pH 7.4 (HEPES). Here is the method:
As an indication of relative solubility, the turbidity of compounds in aqueous solutions is assessed. To assess possible compound properties in different physiological compartments, such as stomach, intestine, and blood, a series of aqueous buffers with varying pH is used. Thus each compound is diluted into four different physiologically relevant buffers and solution turbidity is measured by spectrophotometry.
Compounds are dissolved at a concentration of 25 mM in dimethyl sulfoxide, then serially diluted 1:1 into a 96 well plate, diluting 10 times in pure dimethyl sulfoxide, with the final well of each row a dimethyl sulfoxide blank. In an assay plate, 99 μL of appropriate buffer is added to each well, and 1 μL of each sample dilution is added to the buffer, achieving a range of final total concentrations in aqueous solutions having different pH. The buffers used are Simulated Gastric Fluid (SGF-pH 1.5) 0.5M NaCl, pH 1.5; Simulated Intestinal fluid (SIF-pH 4.5 and pH 6.8) 0.05M NaH2PO4, pH 4.5 and 6.8; and Hepes Buffer (HEPES-pH 7.4) 10 mM HEPES, 150 mM NaCl, pH 7.4. Control compounds pyrene, estriol and propranolol HCl are also assessed. Plates are spun and then mixed for 1 minute, and the absorbance is read using a Tecan Safire II to read wavelengths in the visible range (490, 535, and 650 nm) at four locations per well, reflecting the degree of turbidity present. The average optical density for each wavelength in each well is graphed vs. compound concentration, and the concentration at which the curve crosses a threshold O.D. of 0.01 for each wavelength is reported as the endpoint turbidity assay result. The average of the three wavelengths is used to compare turbidity of compounds. Compounds are considered to have low solubility if the threshold concentration is <31.3 μM, moderate solubility if the threshold concentration is 31.3 μM to 250 μM, and high solubility if the threshold concentration is >250 μM.

In a further data set the target is CYP3A4(BFC) (Homo sapiens (Human), UniProt P08684). Briefly: CYP enzyme inhibition, fluorescent substrate. How it is done:
(§1) CYP (Cytochrome P450) enzymes are the major drug metabolizing enzymes present in the liver. The inhibition of CYP enzyme activity (IC50) for each of CYP1A2, CYP2C19, CYP2C9, CYP2D6, CYP3A4(BFC) and CYP3A4(BQ) is determined for compounds, where inhibition of metabolism of a known substrate leads to a decrease in the fluorescence of the metabolized product. The fluorescence of the product is monitored as a function of compound concentration.
(§2) Compounds are dissolved in DMSO to a concentration of 100 mM. These are diluted 1 μL into 82 μL of acetonitrile. An 11 μL aliquot of this solution is then added to 204 μL of cofactor mix (1.3% NADPH Regeneration system Solution A, 1.04% NADPH Regeneration system Solution B from BD Biosciences, 5% acetonitrile and 0.05% DMSO). These are then serially diluted 1:1 (160 μL to 160 μL co-factor mix) for a total of 10 points. A 10 μL aliquot of this final mixture is dispensed into 384 well assay plates and incubated for 10 minutes at 37° C. Enzyme and substrate mix (10 μL; […] CYP1A2/5 μM CEC; 1.0 μmol CYP2C9/75 μM MFC; […] CYP2C19/25 μM CEC; 1.5 μmol CYP2D6/1.5 μM AMMC; 1.0 μmol CYP3A4/50 μM BFC; or 1.0 μmol CYP3A4/40 μM BQ) is added to these assay plates. Assay plates are incubated at 37° C. (CYP1A2-15 min; CYP2C9-45 min; CYP2C19, 2D6 and 3A4-30 min) and read in a Tecan Safire 2 plate reader (CYP1A2, 2C19 and 3A4 409 ex/460 em; CYP2C9 and 2D6409 ex/530 em). The signal versus compound concentration is used to determine the IC50. The enzymes and substrates for this assay are obtained from BD Biosciences.

Another data set deals with CYP1A2 (Homo sapiens (Human), UniProt P05177). Briefly: CYP enzyme inhibition, fluorescent substrate. Conditions: human, 15 min. Here is the method: as §1, §2
Sequence of CYP1A2 (P05177 whole entry): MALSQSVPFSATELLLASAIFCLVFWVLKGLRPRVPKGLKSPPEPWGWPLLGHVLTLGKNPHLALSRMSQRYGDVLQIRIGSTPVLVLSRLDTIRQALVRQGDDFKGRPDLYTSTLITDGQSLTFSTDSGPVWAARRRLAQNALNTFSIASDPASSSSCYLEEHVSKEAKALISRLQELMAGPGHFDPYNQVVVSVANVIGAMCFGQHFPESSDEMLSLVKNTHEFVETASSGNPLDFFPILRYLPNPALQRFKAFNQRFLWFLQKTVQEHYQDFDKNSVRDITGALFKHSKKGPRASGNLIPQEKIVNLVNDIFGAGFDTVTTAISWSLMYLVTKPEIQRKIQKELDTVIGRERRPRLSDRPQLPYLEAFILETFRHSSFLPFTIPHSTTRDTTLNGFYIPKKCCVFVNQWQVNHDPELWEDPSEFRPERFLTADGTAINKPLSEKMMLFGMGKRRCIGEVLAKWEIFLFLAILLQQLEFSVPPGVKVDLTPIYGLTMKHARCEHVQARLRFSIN
A further data set has as its target CYP2D6 (Homo sapiens (Human), UniProt P10635). Briefly: CYP enzyme inhibition, fluorescent substrate. As to conditions: read-out: Cyp IC50 (μM) 2D6. Here is the method: as §1, §2
The target in another data set is CYP2C9 (Homo sapiens (Human), UniProt P11712). Briefly: CYP enzyme inhibition, fluorescent substrate. Here is the method: as §1, §2
Sequence of CYP2C9 (P11712 whole entry): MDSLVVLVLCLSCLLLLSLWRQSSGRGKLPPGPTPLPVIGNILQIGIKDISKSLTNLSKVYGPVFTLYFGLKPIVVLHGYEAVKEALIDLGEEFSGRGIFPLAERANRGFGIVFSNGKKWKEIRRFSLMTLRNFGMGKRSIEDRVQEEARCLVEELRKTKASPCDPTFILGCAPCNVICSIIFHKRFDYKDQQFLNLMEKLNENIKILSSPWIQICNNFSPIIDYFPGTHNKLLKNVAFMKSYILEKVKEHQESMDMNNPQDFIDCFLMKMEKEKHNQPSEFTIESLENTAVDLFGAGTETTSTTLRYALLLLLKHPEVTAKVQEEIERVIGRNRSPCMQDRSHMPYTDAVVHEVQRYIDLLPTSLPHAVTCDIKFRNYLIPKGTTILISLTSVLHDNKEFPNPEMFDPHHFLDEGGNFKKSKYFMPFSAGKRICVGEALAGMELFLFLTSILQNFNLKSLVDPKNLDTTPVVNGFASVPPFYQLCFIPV
A further data set concerns the target CYP2C19 (Homo sapiens (Human), UniProt P33261). Briefly: CYP enzyme inhibition, fluorescent substrate. Here is the method:
as §1, §2

Another data set addresses CYP3A4(BQ) (Homo sapiens (Human), UniProt P08684). Briefly: CYP enzyme inhibition, fluorescent substrate. As to conditions: read-out: Cyp IC50 (μM) 3A4(BQ); BQ substrate. How it is done:
as §1, §2

The next data set deals with Fms kinase (Homo sapiens (Human), UniProt P07333). Briefly: Fms kinase biochemical activity assay (AlphaScreen, biotin-(E4Y)10 phosphorylation). Here is the method:
In one assay the biochemical activity IC50 values are determined with respect to inhibition of Fms kinase activity, where inhibition of phosphorylation of a peptide substrate is measured as a function of compound concentration. Compounds to be tested, dissolved in DMSO (1 μL), are added to a white 384-well plate (Costar #3705). Working stocks of Fms kinase (Invitrogen #PV3249), biotin-(E4Y)10 substrate (Upstate Biotech, Cat#12-440), and ATP (Sigma, Cat#A-3377) are prepared in 25 mM Hepes pH 7.5, 0.5 mM MgCl2, 2 mM MnCl2, 2 mM DTT, 0.01% BSA, and 0.01% Tween-20. All components are added to the 384-well plate for a final concentration of 1 ng/well Fms, 30 nM biotin-(E4Y)10 (Upstate Biotechnology) and 100 μM ATP in a volume of 20 μL. Each sample is at 5% DMSO. The plate is then incubated for 20 minutes at 30° C. Just before use, working stocks of donor and acceptor beads from the AlphaScreen PY20 Detection Kit (PerkinElmer, Cat#676601M) are prepared in 25 mM Hepes pH 7.5, pH 7.4, 100 mM EDTA, 0.01% BSA. To stop the reaction, the plate is uncovered in the dark and 5 μL of Donor Beads solution (Streptavidin beads) is added to each well. The plate is incubated at room temperature for 20 minutes. Five microliters of Acceptor Beads solution (PY20 coated beads) are then added to each well. The final concentration of each bead is 10 μg/mL. The plates are incubated at room temperature for 60 minutes. Fluorescence signal is recorded on the Envision reader. […] The signal vs. compound concentration is used to determine the IC50.

The next data set has as its target c-Kit kinase (Homo sapiens (Human), UniProt P10721). Briefly: c-Kit kinase biochemical activity assay (AlphaScreen, biotin-(E4Y)10 phosphorylation). How it is done:
In one assay the biochemical activity IC50 values are determined with respect to inhibition of c-Kit kinase activity, where inhibition of phosphorylation of a peptide substrate is measured as a function of compound concentration. Compounds to be tested are dissolved in DMSO to a concentration of 20 mM. These are diluted 30 μL into 120 μL of DMSO (4 mM) and 1 μL is added to an assay plate. These are then serially diluted […] (50 μL to 100 μL DMSO) for a total of 8 points. Plates are prepared such that each kinase reaction is 20 μL in 1× kinase buffer (25 mM HEPES, pH 7.5, 2 mM MgCl2, 2 mM MnCl2, 0.01% Tween-20, 1 mM DTT, 0.01% BSA), 5% DMSO and 100 μM ATP. Substrate is 30 nM biotin-(E4Y)10 (Millipore). C-kit kinase (obtained from Millipore (#14-559) or is prepared as described in U.S. Patent Application Publication Number 2009/0076046, the disclosure of which is hereby incorporated by reference as it relates to this assay) is at 0.75 ng per sample. After incubation of the kinase reaction for 1 hour at room temperature, 5 μL of donor beads (Streptavidin coated beads (Perkin Elmer Life Science) final concentration 10 μg/mL) in stop buffer (25 mM Hepes pH 7.5, 100 mM EDTA, 0.01% BSA) is added, the sample is mixed and incubated for 20 minutes at room temperature before adding 5 μL of acceptor beads (PY20 coated beads (Perkin Elmer Life Science) final concentration 10 μg/mL) in stop buffer. The samples are incubated for 60 minutes at room temperature and the signal per well is read on Envision reader. […] The signal vs. compound concentration is used to determine the IC50.

Sequence of CYP3A4(BQ) (P08684 whole entry): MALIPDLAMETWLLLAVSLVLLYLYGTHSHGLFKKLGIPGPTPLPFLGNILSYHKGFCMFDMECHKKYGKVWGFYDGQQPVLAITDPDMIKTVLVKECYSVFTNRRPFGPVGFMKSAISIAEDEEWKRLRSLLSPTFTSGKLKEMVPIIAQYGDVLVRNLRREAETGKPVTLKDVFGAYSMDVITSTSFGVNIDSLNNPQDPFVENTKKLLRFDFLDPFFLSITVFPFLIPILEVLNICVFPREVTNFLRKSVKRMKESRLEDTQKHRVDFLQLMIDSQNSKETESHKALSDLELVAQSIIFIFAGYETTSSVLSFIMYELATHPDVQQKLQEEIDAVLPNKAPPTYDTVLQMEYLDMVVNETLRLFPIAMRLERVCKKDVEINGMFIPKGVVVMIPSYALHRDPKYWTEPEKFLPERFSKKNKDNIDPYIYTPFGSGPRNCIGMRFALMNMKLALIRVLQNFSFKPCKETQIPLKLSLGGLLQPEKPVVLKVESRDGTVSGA
Sequence of CYP3A4(BFC) (P08684 whole entry): as above
Sequence of Fms kinase (P07333 20-972): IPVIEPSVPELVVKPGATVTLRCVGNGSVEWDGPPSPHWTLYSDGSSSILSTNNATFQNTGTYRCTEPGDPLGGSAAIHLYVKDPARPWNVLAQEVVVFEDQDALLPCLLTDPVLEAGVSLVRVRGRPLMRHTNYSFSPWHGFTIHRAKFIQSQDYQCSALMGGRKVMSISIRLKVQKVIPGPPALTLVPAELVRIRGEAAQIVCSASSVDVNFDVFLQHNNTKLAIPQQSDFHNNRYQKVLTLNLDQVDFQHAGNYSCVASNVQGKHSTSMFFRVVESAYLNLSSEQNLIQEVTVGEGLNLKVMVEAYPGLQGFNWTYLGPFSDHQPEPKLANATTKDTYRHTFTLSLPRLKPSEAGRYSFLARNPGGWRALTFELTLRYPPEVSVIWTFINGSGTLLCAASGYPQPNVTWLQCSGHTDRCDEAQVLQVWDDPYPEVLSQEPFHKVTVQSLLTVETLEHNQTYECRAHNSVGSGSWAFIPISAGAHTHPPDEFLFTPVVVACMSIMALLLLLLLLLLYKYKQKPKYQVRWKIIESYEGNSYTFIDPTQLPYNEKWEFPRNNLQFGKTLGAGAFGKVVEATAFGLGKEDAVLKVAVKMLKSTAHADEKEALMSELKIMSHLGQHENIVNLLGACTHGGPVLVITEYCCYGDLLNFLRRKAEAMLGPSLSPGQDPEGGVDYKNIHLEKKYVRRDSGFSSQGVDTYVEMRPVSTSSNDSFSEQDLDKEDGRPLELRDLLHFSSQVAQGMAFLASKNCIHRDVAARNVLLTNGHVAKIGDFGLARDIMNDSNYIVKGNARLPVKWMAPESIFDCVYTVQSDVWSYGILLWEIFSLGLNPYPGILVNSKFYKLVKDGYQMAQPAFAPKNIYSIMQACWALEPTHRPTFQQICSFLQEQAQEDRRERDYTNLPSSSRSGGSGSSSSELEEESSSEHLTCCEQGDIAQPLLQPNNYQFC
Sequence of CYP2C19 (P33261 whole entry): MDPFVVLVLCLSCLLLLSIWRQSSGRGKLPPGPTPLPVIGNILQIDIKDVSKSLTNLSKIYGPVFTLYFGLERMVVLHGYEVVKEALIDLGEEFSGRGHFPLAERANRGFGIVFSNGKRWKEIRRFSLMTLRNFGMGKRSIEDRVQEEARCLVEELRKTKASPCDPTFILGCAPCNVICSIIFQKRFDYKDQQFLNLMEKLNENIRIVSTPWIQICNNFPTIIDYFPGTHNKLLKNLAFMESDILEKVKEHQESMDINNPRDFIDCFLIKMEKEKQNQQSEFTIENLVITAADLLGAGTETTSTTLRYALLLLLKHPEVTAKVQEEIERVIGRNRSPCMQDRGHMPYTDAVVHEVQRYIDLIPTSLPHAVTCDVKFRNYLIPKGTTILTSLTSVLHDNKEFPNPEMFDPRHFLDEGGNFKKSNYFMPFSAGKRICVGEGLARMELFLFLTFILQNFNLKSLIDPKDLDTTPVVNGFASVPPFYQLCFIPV
Sequence of CYP2D6 (P10635 whole entry): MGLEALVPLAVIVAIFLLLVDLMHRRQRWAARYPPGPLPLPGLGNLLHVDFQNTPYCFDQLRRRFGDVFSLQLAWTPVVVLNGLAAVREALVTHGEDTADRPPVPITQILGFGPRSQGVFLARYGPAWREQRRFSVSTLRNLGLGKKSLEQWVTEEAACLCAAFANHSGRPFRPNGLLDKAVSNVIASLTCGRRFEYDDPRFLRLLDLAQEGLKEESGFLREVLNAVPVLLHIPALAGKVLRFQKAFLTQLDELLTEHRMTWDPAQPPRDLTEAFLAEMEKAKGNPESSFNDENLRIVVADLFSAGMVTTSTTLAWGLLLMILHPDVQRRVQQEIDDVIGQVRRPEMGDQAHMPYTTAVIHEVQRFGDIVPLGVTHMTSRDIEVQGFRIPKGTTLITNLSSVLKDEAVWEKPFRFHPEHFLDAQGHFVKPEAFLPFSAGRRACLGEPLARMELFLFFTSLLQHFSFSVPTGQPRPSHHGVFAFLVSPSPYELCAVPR
Sequence of c-Kit kinase (P10721 26-976): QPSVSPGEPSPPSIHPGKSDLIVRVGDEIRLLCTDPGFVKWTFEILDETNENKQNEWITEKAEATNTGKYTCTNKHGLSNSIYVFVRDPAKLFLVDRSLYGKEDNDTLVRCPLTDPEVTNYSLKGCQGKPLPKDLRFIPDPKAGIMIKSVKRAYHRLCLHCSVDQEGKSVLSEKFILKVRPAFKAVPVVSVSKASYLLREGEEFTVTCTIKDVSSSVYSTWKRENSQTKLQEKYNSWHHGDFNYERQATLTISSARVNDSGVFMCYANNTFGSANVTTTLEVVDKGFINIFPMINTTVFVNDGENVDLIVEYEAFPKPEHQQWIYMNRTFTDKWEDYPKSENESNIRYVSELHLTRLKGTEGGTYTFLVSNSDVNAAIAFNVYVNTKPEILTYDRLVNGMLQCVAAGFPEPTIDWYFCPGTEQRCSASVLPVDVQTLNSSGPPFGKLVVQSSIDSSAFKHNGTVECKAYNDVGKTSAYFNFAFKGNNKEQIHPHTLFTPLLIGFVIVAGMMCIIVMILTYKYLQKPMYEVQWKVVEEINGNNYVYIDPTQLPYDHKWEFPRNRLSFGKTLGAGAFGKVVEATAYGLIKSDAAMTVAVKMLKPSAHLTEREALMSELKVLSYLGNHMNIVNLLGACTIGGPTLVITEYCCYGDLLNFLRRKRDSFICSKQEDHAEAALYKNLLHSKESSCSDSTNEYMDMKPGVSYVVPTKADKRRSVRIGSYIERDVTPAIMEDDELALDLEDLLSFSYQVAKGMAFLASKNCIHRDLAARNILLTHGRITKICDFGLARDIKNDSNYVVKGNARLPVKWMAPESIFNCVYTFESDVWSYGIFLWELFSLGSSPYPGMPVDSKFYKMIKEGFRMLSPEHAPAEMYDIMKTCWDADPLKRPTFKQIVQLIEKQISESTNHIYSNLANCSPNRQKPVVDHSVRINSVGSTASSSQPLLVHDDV

Regarding `COc1ncc(F)cc1CNc1ccc(Cc2c[nH]c3ncc(C)cc23)c(F)n1` [Compound P-2049, (5-Fluoro-2-methoxy-pyridin-3-ylmethyl)-[6-fluoro-5-(5-methyl-1H-pyrrolo[2,3-b]pyridin-3-ylmethyl)-pyridin-2-yl]-amine], the “turbidity threshold (L, M, H) 1.4” value in data set [1] was “M (moderate solubility if the threshold concentration is 31.3 μM to 250 μM)”. Further, the “turbidity threshold (L, M, H) 4.5” value in data set [1] is “L (low solubility if the threshold concentration is <31.3 μM)”. For the same compound, the “turbidity threshold (L, M, H) 6.8” value in [1] is listed as “L (low solubility if the threshold concentration is <31.3 μM)”. Besides, in [1], the “turbidity threshold (L, M, H) 7.4” value was “L (low solubility if the threshold concentration is <31.3 μM)”. Further, the IC50 is 5 to 10 µM on CYP3A4(BFC); greater than 10 µM on CYP1A2; greater than 10 µM on CYP2D6; 5 to 10 µM on CYP2C9; 5 to 10 µM against CYP2C19; greater than 10 µM on CYP3A4(BQ).
For the compound `Cc1cnc2[nH]cc(Cc3ccc(NCc4ccnc(C)c4)nc3F)c2c1` [Compound P-2067, [6-Fluoro-5-(5-methyl-1H-pyrrolo[2,3-b]pyridin-3-ylmethyl)-pyridin-2-yl]-(2-methyl-pyridin-4-ylmethyl)-amine], the “Biochemical activity selectivity (Kit IC50/Fms IC50)” value on Fms kinase (Kit IC50/Fms IC50, biochemical) was greater than 20. The IC50 on Fms kinase (read-out: Biochemical activity (IC50 μM) Fms) is less than 0.1 µM; against c-Kit kinase it was greater than 0.1 µM; on CYP3A4(BFC) (read-out: Cyp IC50 (μM) 3A4(BFC), BFC substrate), less than 5 µM; against CYP1A2, greater than 10 µM; at CYP2C9 (read-out: Cyp IC50 (μM) 2C9), less than 5 µM; on CYP2C19 (read-out: Cyp IC50 (μM) 2C19) it was less than 5 µM. For the same compound, the IC50 on CYP3A4(BQ) is greater than 10 µM. For the same compound, in data set [1], the “turbidity threshold (L, M, H) 1.4” value is given as “H (high solubility if the threshold concentration is >250 μM)”. Besides, the “turbidity threshold (L, M, H) 4.5” value in [1] is on record as “H (high solubility if the threshold concentration is >250 μM)”. Also, in data set [1], the “turbidity threshold (L, M, H) 6.8” value is “H (high solubility if the threshold concentration is >250 μM)”. Further, the “turbidity threshold (L, M, H) 7.4” value in data set [1] is “H (high solubility if the threshold concentration is >250 μM)”.
